These results are taken from publication PMC4578755, “Development of novel cellular histone-binding and chromatin-displacement assays for bromodomain drug discovery” (Epigenetics & Chromatin, 2015).

For assay [1], the system named is histone H3K23Ac mark in HeLa cells. Description: H3K23 acetylation in HeLa cells (Western blot, anti-H3K23Ac immunostaining). The class given is cell-based. To be noted: HDAC inhibitor treatment, 2 µM, 2 h; Western blot. Here is the method: Standard IF procedures were used. Briefly, cells were permeabilized (0.5 % Triton X-100 in PBS) for 15 min and incubated with blocking solution (DAKO #X0909) for 30 min. The following primary antibodies were used: goat anti-V5 (Bethyl #A190-119A) 1:200; mouse anti-FLAG (Sigma #F1804) 1:200; rabbit anti-BRD4 (Abcam #ab128874) 1:200; rabbit anti-TRIM24 (Proteintech #14208-1-AP) 1:400; rabbit anti-K3K23Ac (Cell Signaling #8848) 1:200, and mouse anti-histone H3 (Active Motif #39763) 1:4000. Alexa Fluor-conjugated secondary antibodies were from Invitrogen and Hoechst 33342 (Invitrogen, #H3570) was used for nuclei counterstaining (10 µg/ml). For each Alexa fluorochrome, images (4–10 fields per well; 20X magnifications) were acquired using the Operetta High-Content Screening System (PerkinElmer). Image analysis was performed in Harmony software (PerkinElmer) by selecting nuclei and cytoplasm in Hoechst channel. Gating for single cells of flat morphology was done based on nuclei area, roundness and intensity of Hoechst in the nucleus and in the cytoplasm. In every gated cell, the mean signal intensity value for each fluorochrome was calculated separately in nucleus and cytoplasm. The specific nuclear signal was estimated subtracting mean cytoplasmic value from nuclear; and average value was calculated using at least 1000 cells in each well.
In general terms: A western blot detects proteins with antibodies after separation by electrophoresis.

Assay [2] concerns FLAG-tagged BRD4 in HeLa cells. As to the kind of experiment: In situ cell extraction with IF, BRD4 displacement from chromatin. The class given is cell-based. As to conditions: for IF signal for histone H3: HeLa FLAG-BRD4, two-color staining.
The test system of another assay is SMARCA2. Details: method as in PMID 26139243. To be noted: cited from earlier work.
For assay [3], the target named is T1, FLAG-tagged BRD4 in HeLa cells (Homo sapiens, UniProt O60885).
T1 construct: expressed in transfected cells; host or cells: HeLa
As to the kind of experiment: In situ cell extraction with IF, BRD4 displacement from chromatin. The class given is cell-based. To be noted: HeLa FLAG-BRD4, 96-well, IF.

For assay [4], the target named is FLAG-TRIM24-PHD-Bromo-V5 (isolated PHD-bromodomain, residues 810-1050) (human) (UniProt O15164). Description: proximity ligation; HeLa TRIM24-PB cells, fixed; goat anti-V5 and mouse anti-histone H3 antibody pair; with and without SAHA (5 µM, 2 h).
Assay [5] shares this target. Description: AlphaScreen or HTRF; AlphaLISA on lysates of HeLa TRIM24-PB cells pretreated with SAHA or DMSO; anti-FLAG or anti-V5 acceptor beads, biotinylated anti-histone H3 antibody, streptavidin donor beads; histone extraction buffer diluted in water. (In Alpha technology, singlet oxygen from a donor bead excites a nearby acceptor bead.)
Assay [6] deals with biotinylated H3K23Ac peptide (N-terminal residues 1-33 of histone H3). As to the kind of experiment: AlphaScreen or HTRF; AlphaScreen; biotinylated H3K23Ac peptide in excess (1 µM), indicated amounts of His-TRIM24 WT or N980A; streptavidin donor beads and Ni-NTA acceptor beads.
For assay [7] the target is unchanged. Description: AlphaScreen or HTRF; AlphaScreen optimisation matrix of TRIM24 protein and peptide (twofold dilution series); final conditions 5 nM TRIM24 and 15 nM peptide; Buffer B (50 mM Hepes pH 7.4, 100 mM NaCl, 0.1 % BSA, 0.05 % Chaps), room temperature.

Sequence of biotinylated H3K23Ac peptide (N-terminal residues 1-33 of histone H3) (peptide, as listed by the source): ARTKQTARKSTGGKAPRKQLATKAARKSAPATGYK

Consider `CC(/C=C/C(=O)NO)=C\[C@@H](C)C(=O)c1ccc(N(C)C)cc1` [TSA, Trichostatin A], for which the “Cellular histone H3K23Ac mark” value in assay [1] was “hyperacetylated”.

I-BET 151: the “IF signal for histone H3” value in assay [2] is recorded as “unaffected”.

`O=C(/C=C/N1C[C@H]2C[C@@H]1CN2c1ccccn1)c1ccccc1O` [PFI-3]: the “Displacement of endogenous full-length SMARCA2 protein from chromatin” value in the assay on SMARCA2 is reported as “fails to displace”. Moreover, the “Displacement of isolated GFP-tagged SMARCA2 bromodomain from chromatin” value in the assay with SMARCA2 (engineered cells) was “can displace”.

Take `Cc1sc2c(c1C)C(c1ccc(Cl)cc1)=N[C@@H](CC(=O)OC(C)(C)C)c1nnc(C)n1-2` [JQ1]: in assay [2], the “IF signal for histone H3” value was “unaffected”. In addition, in assay [2] (JQ1 1 µM, HeLa expressing FLAG-tagged bromodomain of BRD4), the “Time to decrease in BRD4 bromodomain binding to chromatin” value is not above 5 min.

As for `COc1cc(OC)c2c(=O)[nH]c(-c3cc(C)c(OCCO)c(C)c3)nc2c1` [RVX-208], the “Displacement of BRD4 from chromatin” value in assay [3] is given as “partial displacement”.

As to “endogenous histone H3 (from UniProt P68431 1-136) (natural protein)”, the fold increase of the PLA signal with SAHA against no SAHA in assay [4] is more than 3 fold. In addition, in assay [5], the AlphaLISA S/B (FLAG-acceptor beads, histone extraction buffer diluted 1:10) came to 50 fold; the AlphaLISA S/B (FLAG-acceptor beads, histone extraction buffer replaced by water) came out at 20; the AlphaLISA S/B (V5-acceptor beads) came out at 14 fold; the AlphaLISA S/B (final 384-well protocol, 26 plates) was 30.

“His-tagged TRIM24 PHD-bromodomain, wild type (domain or fragment)” showed an AlphaScreen signal to background (S/B) in assay [6] of more than 250. Further, the AlphaScreen S/B at 5 nM TRIM24 and 15 nM peptide in assay [7] was determined as 432.
